Test results reported in patent publication US9624215B2, “Amine derivative or salt thereof” (TOYAMA CHEMICAL CO., LTD., priority 2012, dated 2017).

test system: normal human neonatal foreskin epidermal keratinocytes (NHEK-F); assay: Cell proliferation inhibition test; type: cell-based; settings: Keratinocyte, 72 h, NHEK-F cells, three days incubation, ATPlite or CellTiterGlo, read-out: IC50 (concentration of the compound at which the cell count is reduced by 50%)
Summary of the method: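 IC50 is the compound level halving cell count relative to untreated wells, with counts from ATP-based luminescence (ATPlite or CellTiterGlo). Readout followed 3 days of compound exposure of overnight-attached neonatal foreskin keratinocytes (2×10^3/well, Humedia-EG2 medium).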

| Structure (SMILES) | IC50 |
| --- | --- |
| Cc1cc2cc(Nc3ncc(C4CC4)cc3C(=O)O)ccc2n1C [Example 391, 5-cyclopropyl-2-((1,2-dimethyl-1H-indol-5-yl)amino)nicotinic acid] | 100 to 1000 nM |
| O=C(O)c1cc(C2CC2)cnc1Nc1cccc2c(-c3ccccc3)cccc12 [Example 367, 5-cyclopropyl-2-((5-phenylnaphthalen-1-yl)amino)nicotinic acid] | ≤ 10 nM |
| COCCCc1cccc(Cn2ccc3cc(Nc4ncc(C5CC5)cc4C(=O)O)ccc32)c1 [Example 509, 5-cyclopropyl-2-((1-(3-(3-methoxypropyl)benzyl)-1H-indol-5-yl)amino)nicotinic acid] | ≤ 10 nM |
| Cc1ccccc1-c1cc(Nc2ncc(C3CC3)cc2C(=O)O)cc2ccn(C)c12 [Example 476, 5-cyclopropyl-2-((1-methyl-7-(o-tolyl)-1H-indol-5-yl)amino)nicotinic acid] | ≤ 10 nM |
| Cn1ccc2cc(Nc3ncc(C4CC4)cc3C(=O)O)cc(/C=C/C3CC3)c21 [Example 469, (E)-5-cyclopropyl-2-((7-(2-cyclopropylvinyl)-1-methyl-1H-indol-5-yl)amino)nicotinic acid] | ≤ 10 nM |
| Cn1ccc2cc(Nc3ncc(C4CC4)cc3C(=O)O)cc(-c3cccc(OC(F)(F)F)c3)c21 [Example 492, 5-cyclopropyl-2-((1-methyl-7-(3-(trifluoromethoxy)phenyl)-1H-indol-5-yl)amino)nicotinic acid] | ≤ 10 nM |
| CCc1cc(Nc2ncc(C3CC3)cc2C(=O)O)cc2ccn(CC)c12 [Example 413, 5-cyclopropyl-2-((1,7-diethyl-1H-indol-5-yl)amino)nicotinic acid] | 10 to 100 nM |
| O=C(O)c1cc(C2CC2)cnc1Nc1ccc2c(ccn2Cc2cccnc2)c1 [Example 137, 5-cyclopropyl-2-((1-(pyridin-3-ylmethyl)-1H-indol-5-yl)amino)nicotinic acid] | 10 to 100 nM |
| CC(C)Cn1ccc2c(Nc3ncc(C4CC4)cc3C(=O)O)cccc21 [Example 431, 5-cyclopropyl-2-((1-isobutyl-1H-indol-4-yl)amino)nicotinic acid] | ≤ 10 nM |
| Cc1cccc(-c2cn(C)c3ccc(Nc4ncc(C5CC5)cc4C(=O)O)cc23)c1 [Example 569, 5-cyclopropyl-2-((1-methyl-3-(3-methylphenyl)-1H-indol-5-yl)amino)nicotinic acid] | 100 to 1000 nM |
| O=C(O)c1cc(C2CC2)cnc1Nc1cnc2c(ccn2CC2CCCCC2)c1 [Example 549] | ≤ 10 nM |
| O=C(O)c1cc(C2CC2)cnc1Nc1ccc2c(ccn2Cc2cccc(OC(F)(F)F)c2)c1 [Example 496, 5-cyclopropyl-2-((1-(3-(trifluoromethoxy)benzyl)-1H-indol-5-yl)amino)nicotinic acid] | 10 to 100 nM |
| Cn1c(C(C)(C)C)cc2cc(Nc3ncc(C4CC4)cc3C(=O)O)ccc21 [Example 157, 2-((2-(tert-butyl)-1-methyl-1H-indol-5-yl)amino)-5-cyclopropylnicotinic acid] | 100 to 1000 nM |
| Cc1cccc(-c2cc(Nc3ncc(C4CC4)cc3C(=O)O)cc3ccn(C)c23)c1 [Example 477, 5-cyclopropyl-2-((1-methyl-7-(m-tolyl)-1H-indol-5-yl)amino)nicotinic acid] | ≤ 10 nM |
| O=C(O)c1cc(C2CC2)cnc1Nc1ccc2c(ccn2-c2cccc(F)c2)c1 [Example 231, 5-cyclopropyl-2-((1-(3-fluorophenyl)-1H-indol-5-yl)amino)nicotinic acid] | ≤ 10 nM |
| O=C(O)c1cc(C2CC2)cnc1Nc1ccc2c(c1)OCC(=O)N2c1ccccc1 [Example 399, 5-cyclopropyl-2-((3-oxo-4-phenyl-3,4-dihydro-2H-benzo[b][1,4]oxazin-7-yl)amino)nicotinic acid] | 100 to 1000 nM |
| O=C(O)c1cc(C2CC2)cnc1Nc1cccc2c(-c3ccccc3)ncnc12 [Example 531, 5-cyclopropyl-2-((4-phenylquinazolin-8-yl)amino)nicotinic acid] | 10 to 100 nM |
| O=C(O)c1cc(C2CC2)cnc1Nc1ccc2c(ccn2CC2CCCCO2)c1 (stereo not shown) [Example 414, 5-cyclopropyl-2-((1-((tetrahydro-2H-pyran-2-yl)methyl)-1H-indol-5-yl)amino)nicotinic acid] | 10 to 100 nM |
| O=C(O)c1cc(C2CC2)cnc1Nc1cccc2c1ccn2CC1CCOC1 (stereo not shown) [Example 427, 5-cyclopropyl-2-((1-((tetrahydrofuran-3-yl)methyl)-1H-indol-4-yl)amino)nicotinic acid] | 10 to 100 nM |
| COc1ccccc1-c1cn(C)c2ccc(Nc3ncc(C4CC4)cc3C(=O)O)cc12 [Example 581, 5-cyclopropyl-2-((3-(2-methoxyphenyl)-1-methyl-1H-indol-5-yl)amino)nicotinic acid] | 10 to 100 nM |
| O=C(O)c1cc(C2CC2)cnc1Nc1ccc2c(ccn2CCCc2ccccc2)c1 [Example 618, 5-cyclopropyl-2-((1-(3-phenylpropyl)-1H-indol-5-yl)amino)nicotinic acid] | ≤ 10 nM |
| O=C(O)c1cc(Cl)ccc1Nc1ccc2c(ccn2Cc2ccc3ccccc3n2)c1 [Example 251, 5-chloro-2-((1-(quinolin-2-ylmethyl)-1H-indol-5-yl)amino)benzoic acid] | 10 to 100 nM |

| Structure (SMILES) | IC50 |
| --- | --- |
| Cn1ccc2cc(Nc3ncc(C4CC4)cc3C(=O)O)cc(-c3cncnc3)c21 [Example 591, 5-cyclopropyl-2-((1-methyl-7-(pyrimidin-5-yl)-1H-indol-5-yl)amino)nicotinic acid] | 100 to 1000 nM |
| O=C(O)c1cc(C2CC2)ccc1Nc1ccc2[nH]cc(-c3ccccc3)c2c1 [Example 377, 5-cyclopropyl-2-((3-phenyl-1H-indol-5-yl)amino)benzoic acid] | 10 to 100 nM |
| O=C(O)c1cc(C2CC2)cnc1Nc1ccc2c(ccn2C(=O)C2CCCCC2)c1 [Example 583, 2-((1-(cyclohexylcarbonyl)-1H-indol-5-yl)amino)-5-cyclopropylnicotinic acid] | 10 to 100 nM |
| O=C(O)c1cc(Cl)ccc1Nc1ccc2c(ccn2CC2CCCCC2)c1 [Example 257, 5-chloro-2-((1-(cyclohexylmethyl)-1H-indol-5-yl)amino)benzoic acid] | ≤ 10 nM |
| CC(C)Cn1ccc2cc(Nc3ncc(C4CC4)cc3C(=O)O)cnc21 [Example 547, 5-cyclopropyl-2-((1-isobutyl-1H-pyrrolo(2,3-b)pyridin-5-yl)amino)nicotinic acid] | 10 to 100 nM |
| O=C(O)c1cc(C2CC2)cnc1Nc1ccc2c(ccn2Cc2ccncc2)c1 [Example 148, 5-cyclopropyl-2-((1-(pyridin-4-ylmethyl)-1H-indol-5-yl)amino)nicotinic acid] | 100 to 1000 nM |
| O=C(O)c1cc(C2CC2)cnc1Nc1ccc2c(ccn2C(=O)c2ccccc2)c1 [Example 575, 2-((1-benzoyl-1H-indol-5-yl)amino)-5-cyclopropylnicotinic acid] | 10 to 100 nM |
| O=C(O)c1cc(C(F)(F)F)cnc1Nc1ccc2c(ccn2Cc2ccccc2)c1 [Example 116, 2-((1-benzyl-1H-indol-5-yl)amino)-5-(trifluoromethyl)nicotinic acid] | ≤ 10 nM |
| CS(=O)(=O)NC(=O)c1cc(C2CC2)cnc1Nc1ccc2c(ccn2-c2ccccc2)c1 [Example 159, 5-cyclopropyl-N-(methylsulfonyl)-2-((1-phenyl-1H-indol-5-yl)amino)nicotinamide] | 10 to 100 nM |
| O=C(O)c1cc(Cl)ccc1Nc1ccc2c(ccn2-c2ccccn2)c1 [Example 311, 5-chloro-2-((1-(pyridin-2-yl)-1H-indol-5-yl)amino)benzoic acid] | ≤ 10 nM |
| Cn1cc(-c2cccc(F)c2)c2cc(Nc3ncc(C4CC4)cc3C(=O)O)ccc21 [Example 559, 5-Cyclopropyl-2-((3-(3-fluorophenyl)-1-methyl-1H-indol-5-yl)amino)nicotinic acid] | 10 to 100 nM |
| CCCCCCCn1ccc2cc(Nc3ncc(C4CC4)cc3C(=O)O)ccc21 [Example 640, 5-cyclopropyl-2-((1-heptyl-1H-indol-5-yl)amino)nicotinic acid] | 10 to 100 nM |
| O=C(O)c1cc(-c2ccccc2)ccc1Nc1ccc2c(ccn2Cc2ccccc2)c1 [Example 359, 4-((1-Benzyl-1H-indol-5-yl)amino)-[1,1′-biphenyl]-3-carboxylic acid] | 10 to 100 nM |
| Cn1ccc2cc(Nc3ncc(C4CC4)cc3C(=O)O)cc(-c3cccc(F)c3F)c21 [Example 587, 5-cyclopropyl-2-((7-(2,3-difluorophenyl)-1-methyl-1H-indol-5-yl)amino)nicotinic acid] | ≤ 10 nM |
| O=C(O)c1cc(Cl)ccc1Nc1ccc2c(c1)c(Cc1ccccc1)cn2Cc1ccccc1 [Example 88, 5-chloro-2-((1,3-dibenzyl-1H-indol-5-yl)amino)benzoic acid] | 10 to 100 nM |
| CCCn1ccc2c(Nc3ncc(C4CC4)cc3C(=O)O)cccc21 [Example 419, 5-cyclopropyl-2-((1-propyl-1H-indol-4-yl)amino)nicotinic acid] | 10 to 100 nM |
| O=C(O)c1cc(Cl)cnc1Nc1ccc2c(ccn2Cc2cccc(F)c2)c1 [Example 645, 5-chloro-2-((1-(3-fluorobenzyl)-1H-indol-5-yl)amino)nicotinic acid] | 10 to 100 nM |
| O=C(O)c1cc(C2CC2)cnc1Nc1cccc2c1ccn2-c1ccccc1 [Example 433, 5-cyclopropyl-2-((1-phenyl-1H-indol-4-yl)amino)nicotinic acid] | ≤ 10 nM |
| CCOCCc1cc(Nc2ncc(C3CC3)cc2C(=O)O)cc2ccn(C)c12 [Example 605, 5-cyclopropyl-2-((7-(2-ethoxyethyl)-1-methyl-1H-indol-5-yl)amino)nicotinic acid] | 10 to 100 nM |
| O=C(O)c1cc(C2CC2)ccc1Nc1cccc2c1ccc(=O)n2-c1ccccc1 [Example 539, 5-cyclopropyl-2-((2-oxo-1-phenyl-1,2-dihydroquinolin-5-yl)amino)benzoic acid] | ≤ 10 nM |
| Cn1cc(-c2ccc(F)cc2)c2cc(Nc3ncc(C4CC4)cc3C(=O)O)ccc21 [Example 561, 5-cyclopropyl-2-((3-(4-fluorophenyl)-1-methyl-1H-indol-5-yl)amino)nicotinic acid] | 10 to 100 nM |
